Experimental data from patent US9950072B2, “Controlled release formulations for the delivery of HIF-1 inhibitors” (The Johns Hopkins University, priority 2012, dated 2018).
Entries after “also recorded” stand apart in the source; their conditions may differ.

Experiments:
[1] = tested on: choroidal NV in C57BL/6 mice; test: Laser-induced choroidal NV (rupture of Bruch's membrane) mouse model; assay type: in vivo; conditions: 14 days, vs fellow eyes injected with vehicle
Protocol: Pathogen-free C57BL/6 mice (Charles River, Wilmington, Mass.) were treated in accordance with the Association for Research in Vision and Ophthalmology Statement for the Use of Animals in Ophthalmic and Vision Research and the guidelines of the Johns Hopkins University Animal Care and Use Committee.
Choroidal NV was induced by laser photocoagulation-induced rupture of Bruch's membrane as previously described (Tobe, T. et al., Am. J. Pathol. 135(5): 1641-1646 (1998)). […] Laser photocoagulation (75 μm spot size, 0.1 sec duration, 120 mW) was performed in the 9, 12, and 3 o'clock positions of the posterior pole of each eye with the slit lamp delivery system of an OcuLight GL diode laser (Iridex, Mountain View, Calif.) and a handheld cover slip as a contact lens to view the retina. Production of a bubble at the time of laser, which indicates rupture of Bruch's membrane, is an important factor in obtaining CNV; therefore, only burns in which a bubble was produced were included in the study.
Immediately after laser-induced rupture of Bruch's membrane, mice were randomized to various treatment groups for intraocular injections. Intravitreal injections were done under a dissecting microscope with a Harvard Pump Microinjection System and pulled glass micropipettes.
At 1, 4, 7, and 14 days after injection, fundus photographs were taken with a Micron III® camera (Phoenix Research Laboratories Inc., Pleasanton, Calif.). After 14 days, the mice were perfused with 1 ml of PBS containing 25 mg/ml of fluorescein-labeled dextran (2×10^6 Daltons average molecular weight; Sigma-Aldrich, St. Louis, Mo.) and choroidal flat mounts were examined by fluorescence microscopy. Images were captured with a Nikon Digital Still Camera DXM1200 (Nikon Instruments Inc., New York, N.Y.). Image analysis software (Image-Pro® Plus; Media Cybernetics, Silver Spring, Md.) was used to measure the total area of CNV at each rupture site with the investigator masked with respect to treatment group.

[2] = tested on: retinal NV in C57BL/6 mice with oxygen-induced ischemic retinopathy; test: Oxygen-induced ischemic retinopathy, area of retinal NV; assay type: in vivo; conditions: measured five days later (P17)
Protocol: At P17, the area of retinal NV on the surface of the retina was measured. […] Retinas were dissected, washed, and incubated with goat-anti rat polyclonal antibody conjugated with Alexa 488 (Invitrogen, Carlsbad, Calif.) at 1:500 dilution at room temperature for 45 minutes and flat mounted. An observer masked with respect to treatment group measured the area of NV per retina by image analysis.

[3] = tested on: retinal function in C57BL/6 mice; test: Electroretinograms (ERGs) after intraocular injection
Protocol: For scotopic recordings, mice were dark adapted overnight, and for photopic recordings, mice were adapted for 10 min to background white light at an intensity of 30 cd/m^2. The mice were anesthetized with an intraperitoneal injection of ketamine hydrochloride (100 mg/kg body weight) and xylazine (5 mg/kg body weight). Pupils were dilated with Midrin P containing of 0.5% tropicamide and 0.5% phenylephrine, hydrochloride (Santen Pharmaceutical Co., Osaka, Japan). The mice were placed on a pad heated to 39° C. and platinum loop electrodes were placed on each cornea after application of Gonioscopic prism solution (Alcon Labs, Fort Worth, Tex.). A reference electrode was placed subcutaneously in the anterior scalp between the eyes and a ground electrode was inserted into the tail. The head of the mouse was held in a standardized position in a ganzfeld bowl illuminator that ensured equal illumination of the eyes. Recordings for both eyes were made simultaneously with electrical impedance balanced. Scotopic ERGs were recorded at 11 intensity levels of white light ranging from −3.00 to 1.40 log cd-s/m2. Six measurements were averaged for each flash intensity. Photopic ERGs were recorded at three intensity levels of white light ranging from 0.60 to 1.40 log cd-s/m2 with a 30 cd/m2 background. Five measurements were averaged for each flash intensity.

[4] = tested on: photoreceptor cells (ONL) of C57BL/6 mice; test: Outer nuclear layer (ONL) thickness after intraocular injection; assay type: in vivo; conditions: 0.25 μg intraocular; one week
Protocol: ONL thickness was measured. […] Mice were euthanized, a mark was placed at 12:00 at the corneal limbus, and eyes were removed and embedded in optimal cutting temperature compound. Ten micrometer frozen sections were cut parallel to the 12:00 or 9:00 meridian through the optic nerve and fixed in 4% paraformaldehyde. The sections were stained with hematoxylin and eosin, examined with an Axioskop microscope (Zeiss, Thornwood, N.Y.), and images were digitized using a three charge-coupled device (CCD) color video camera (IK-TU40A; Toshiba, Tokyo, Japan) and a frame grabber. Image-Pro Plus software (Media Cybernetics, Silver Spring, Md.) was used to outline the ONL.

[5] = tested on: HIF-1 transcriptional activity and ocular NV; conditions: intraocular injections of 0.01-0.25 μg; cited from earlier work
[6] = 0.1 μg intraocular injection after laser
[7] = 1.0 μg intraocular injection after laser
[8] = 10 μg intraocular injection after laser
[9] = 1 μg intraocular, fourteen days

| SMILES | area of CNV [1, 6] | area of CNV [1, 7] | area of CNV [1, 8] | area of RNV ([2]; 0.01 μg intraocular at P12) | area of RNV ([2]; 0.1 μg intraocular at P12) | area of RNV ([2]; 1.0 μg intraocular at P12) | mean scotopic and photopic b-wave amplitudes [3, 9] | outer nuclear layer thickness [4] | effect on HIF-1 transcriptional activity and ocular NV [5] | mean scotopic and photopic b-wave amplitudes ([3]; 0.05 μg intraocular) | ERG amplitudes (scotopic a-wave, scotopic b-wave, photopic b-wave) ([3]; 0.25 μg intraocular, one week) |
| --- | --- | --- | --- | --- | --- | --- | --- | --- | --- | --- | --- |
| COc1cccc2c1C(=O)c1c(O)c3c(c(O)c1C2=O)C[C@@](O)(C(C)=O)C[C@@H]3O[C@H]1C[C@H](N)[C@H](O)[C@H](C)O1 [DNR, daunorubicin] | had no significant effect; also recorded: did not show a statistically significant reduction in the area of CNV | had no significant effect; also recorded: did not show a statistically significant reduction in the area of CNV | suppressed choroidal NV; also recorded: statistically significant reduction in the area of CNV | had no significant effect; also recorded: did not show a statistically significant reduction in the area of RNV | caused a small reduction; also recorded: statistically significant reduction in the area of RNV | markedly reduced the area of retinal NV; also recorded: statistically significant reduction in the area of RNV | significant reduction in mean scotopic and photopic b-wave amplitudes | – | – | – | – |
| COc1cccc2c1C(=O)c1c(O)c3c(c(O)c1C2=O)C[C@@](O)(C(=O)CO)C[C@@H]3O[C@H]1C[C@H](N)[C@H](O)[C@H](C)O1 [DXR, doxorubicin] | did not have a significant effect; also recorded: did not show a statistically significant reduction in the area of CNV | did not have a significant effect; also recorded: did not show a statistically significant reduction in the area of CNV | suppressed choroidal NV; also recorded: statistically significant reduction in the area of CNV | but not 0.1 or 0.01 μg, significantly reduced; also recorded: did not show a statistically significant reduction in the area of RNV | but not 0.1 or 0.01 μg, significantly reduced; also recorded: did not show a statistically significant reduction in the area of RNV | significantly reduced the area of retinal NV; also recorded: statistically significant reduction in the area of RNV | significant reduction in mean scotopic and photopic b-wave amplitudes | – | – | – | – |
| C[C@H]1O[C@@H](O[C@H]2[C@@H](O)C[C@H](O[C@H]3[C@@H](O)C[C@H](O[C@H]4CC[C@@]5(C)[C@H](CC[C@@H]6[C@@H]5C[C@@H](O)[C@]5(C)[C@@H](C7=CC(=O)OC7)CC[C@]65O)C4)O[C@@H]3C)O[C@@H]2C)C[C@H](O)[C@@H]1O [digoxin] | – | – | – | – | – | – | – | reduction in outer nuclear layer thickness at 3 of 6 measurement locations | suppress HIF-1 transcriptional activity and ocular NV | significant reduction in mean scotopic and photopic b-wave amplitudes | significant reduction in mean scotopic a-wave amplitude, mean scotopic b-wave amplitude, and mean photopic b-wave amplitude |
